{"source": "patent US20070004680A1", "about": "“Compositions and methods for modulating gated ion channels” (PainCeptor Pharma Corporation, priority 2004, published 2007)", "key": {"ASIC1a": {"target": "T1, ASIC1a (Rattus norvegicus, UniProt P55926)", "T1 construct": "expressed in transfected cells; host or cells: HEK cells according to b213", "T1 sequence (P55926 1-526)": "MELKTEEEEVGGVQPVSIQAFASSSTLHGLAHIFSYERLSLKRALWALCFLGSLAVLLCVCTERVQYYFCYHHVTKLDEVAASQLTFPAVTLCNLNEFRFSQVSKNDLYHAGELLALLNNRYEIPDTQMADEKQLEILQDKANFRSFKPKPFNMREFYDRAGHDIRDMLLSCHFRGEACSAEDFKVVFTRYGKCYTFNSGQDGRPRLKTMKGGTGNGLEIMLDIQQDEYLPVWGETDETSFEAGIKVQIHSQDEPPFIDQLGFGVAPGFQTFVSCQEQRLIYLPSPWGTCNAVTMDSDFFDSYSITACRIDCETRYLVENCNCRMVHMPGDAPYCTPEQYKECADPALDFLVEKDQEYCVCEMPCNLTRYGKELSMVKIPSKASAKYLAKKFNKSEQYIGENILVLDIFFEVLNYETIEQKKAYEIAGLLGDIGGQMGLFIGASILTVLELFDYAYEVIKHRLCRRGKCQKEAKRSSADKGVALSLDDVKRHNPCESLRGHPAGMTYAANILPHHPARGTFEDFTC", "assay": "whole cell patch clamp electrophysiology, ASIC1a", "type": "cell-based", "conditions": "for Fraction of Control, ASIC1a - pH Dependency: 10 μM compound", "procedure": "(§1) Another example of an in vitro assessment method consists of using mammalian heterologous expression systems, which are known to the skilled in the art, and include a variety of mammalian cell lines such as COS, HEK, e.g., HEK293and/or CHO, cells. Cell lines are transfected with gated ion channel(s) and used to perform electrophysiology as follows:\n(§2) All experiments are performed at room temperature (20-25° C.) in voltage clamp using conventional whole cell patch clamp methods (Neher, E., et al. (1978) Pfluegers Arch 375:219-228).\n(§3) The amplifier used is the EPC-9 (HEKA-electronics, Lambrect, Germany) run by a Macintosh G3 computer via an ITC-16 interface. Experimental conditions are set with the Pulse-software accompanying the amplifier. Data is low pass filtered and sampled directly to hard-disk at a rate of 3 times the cut-off frequency.\n(§4) Pipettes are pulled from borosilicate glass using a horizontal electrode puller (Zeitz-lnstrumente, Augsburg, Germany). The pipette resistances are 2-3 MOhms in the salt solutions used in these experiments. The pipette electrode is a chloridized silver wire, and the reference is a silver chloride pellet electrode (In Vivo Metric, Healdsburg, USA) fixed to the experimental chamber. The electrodes are zeroed with the open pipette in the bath just prior to sealing.\n(§5) Coverslips with the cells are transferred to a 15 μl experimental chamber mounted on the stage of an inverted microscope (IMT-2, Olympus) supplied with Nomarski optics. Cells are continuously superfused with extracellular saline at a rate of 2.5 ml/min. After giga-seal formation, the whole cell configuration is attained by suction. The cells are held at a holding voltage of −60 mV and at the start of each experiment the current is continuously measured for 45 s to ensure a stable baseline. Solutions of low pH (<7) are delivered to the chamber through a custom-made gravity-driven flowpipe, the tip of which is placed approximately 50 μm from the cell. Application is triggered when the tubing connected to the flowpipe is compressed by a valve controlled by the Pulse-software. Initially, low pH (in general, pH 6.5) is applied for 1 s every 45 s. The sample interval during application is 550 μs. After stable responses are obtained, the extracellular saline as well as the low-pH solution are switched to solutions containing the compound to be tested. The compound is present until responses of a repeatable amplitude are achieved. Current amplitudes are measured at the peak of the responses, and effect of the compounds is calculated as the amplitude at compound equilibrium divided by the amplitude of the current evoked by the pulse just before the compound was included.\nThe following salt solutions are used: extracellular solution (mM): NaCl (140), KCl (4), CaCl2 (2), MgCl2 (4), HEPES (10, pH 7.4); intracellular solution (mM): KCl (120), KOH (31), MgCl2 (1.785), […] (10), HEPES (10, pH 7.2). In general, compounds for testing are dissolved in 50% DMSO at 500 fold the highest concentration used.\nThe cDNA for ASIC1a and ASIC3 can be cloned from rat poly(A)^+ mRNA and put into expression vectors according to Hesselager et al. (J Biol Chem. 279(12):11006-15 2004). All constructs are expressed in CHO-K1 cells (ATCC no. CCL61). CHO-K1 cells are cultured at 37° C. in a humidified atmosphere of 5% CO2 and 95% air and passaged twice every week. The cells are maintained in DMEM (10 mM HEPES, 2 mM glutamax) supplemented with 10% fetal bovine serum and 2 mM L-proline (Life Technologies). […]"}, "ASIC3": {"target": "T2, ASIC3 (Rattus norvegicus, UniProt O35240)", "T2 construct": "expressed in transfected cells", "T2 sequence (O35240 1-533)": "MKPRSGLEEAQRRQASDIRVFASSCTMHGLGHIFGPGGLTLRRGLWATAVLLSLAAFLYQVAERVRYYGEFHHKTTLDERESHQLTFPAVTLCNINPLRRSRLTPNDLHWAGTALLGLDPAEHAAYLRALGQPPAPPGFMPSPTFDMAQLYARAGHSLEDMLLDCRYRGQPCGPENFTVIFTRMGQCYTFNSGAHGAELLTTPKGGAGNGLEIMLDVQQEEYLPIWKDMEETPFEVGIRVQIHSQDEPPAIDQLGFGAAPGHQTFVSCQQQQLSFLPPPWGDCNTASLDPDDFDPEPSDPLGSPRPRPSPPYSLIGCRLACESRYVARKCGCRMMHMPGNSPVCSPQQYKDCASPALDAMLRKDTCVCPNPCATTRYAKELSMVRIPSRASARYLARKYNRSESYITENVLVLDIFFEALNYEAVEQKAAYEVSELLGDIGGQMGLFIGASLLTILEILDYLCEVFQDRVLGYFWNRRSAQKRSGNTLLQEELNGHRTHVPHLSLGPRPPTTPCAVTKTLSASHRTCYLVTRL", "assay": "whole cell patch clamp electrophysiology, ASIC3", "type": "cell-based", "procedure": "as §1, §2, §3, §4\nas §5, with “included. […]” for “included.”"}}, "data": [{"smiles": "C=CC1CN2CCC1CC2[C@@H](OC(=O)CCC1CCCC1)c1ccnc2ccccc12", "note": "(some centres unmarked) [Compound A]", "values": [{"measurement": "Fraction of Control, ASIC1a - pH Dependency", "setting": "ASIC1a; pH 5.0", "result": "greater than .85"}, {"measurement": "Fraction of Control, ASIC1a - pH Dependency", "setting": "ASIC1a; pH 6.0", "result": "greater than .85"}, {"measurement": "IC50", "setting": "ASIC1a; patch clamp, HEK cells, pH 6.5", "result": "17 to 23", "unit": "µM"}, {"measurement": "Fraction of Control, ASIC3 - pH Dependency", "setting": "ASIC3; 10 μM compound, pH 5.0", "result": "greater than .75"}, {"measurement": "IC50", "setting": "ASIC3; patch clamp, pH 6.5", "result": "4 to 6", "unit": "µM"}]}]}
